{
  "source": "patent US7323303B2",
  "about": "“Modified β-lactamases and uses thereof” (priority 2003, dated 2008)",
  "molecular_target": "T1, E166Cf enzyme (Bacillus cereus, UniProt P00809, E185C)",
  "T1 construct": "made in house; host or cells: B. subtilis 1A304 (φ105MU331); then labelled chemically",
  "T1 sequence (P00809 28-306 E185C)": "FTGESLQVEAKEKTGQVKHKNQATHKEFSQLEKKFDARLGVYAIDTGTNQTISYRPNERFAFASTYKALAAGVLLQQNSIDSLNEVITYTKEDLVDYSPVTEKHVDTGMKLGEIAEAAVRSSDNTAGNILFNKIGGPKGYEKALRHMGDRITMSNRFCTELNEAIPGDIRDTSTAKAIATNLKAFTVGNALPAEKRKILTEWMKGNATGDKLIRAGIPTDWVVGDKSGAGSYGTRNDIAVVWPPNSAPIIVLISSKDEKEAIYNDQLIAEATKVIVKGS",
  "assay": "Time-resolved fluorescence of E166Cf enzyme with penicillins and cephalosporins",
  "assay_type": "biochemical",
  "conditions": "E166Cf 1.2×10^−7 M",
  "procedure": "Fluorescence measurements of the E166Cf enzyme in the presence of penicillin G, penicillin V, ampicillin, cefuroxime, cefoxitin and moxalactam were performed on a Perkin Elmer LS50B spectrofluorometer. For time-resolved fluorescence measurement, excitation and emission wavelengths were set at 494 and 515 nm respectively. Both excitation and emission slit widths were set at 5 nm. All fluorescence measurements were performed at room temperature.\nWith penicillin G as substrate, the fluorescence signal of the E166Cf enzyme (1.2×10^−7 M) at 515 nm in 50 mM phosphate buffer (pH 7.0) increases as a function of the antibiotic concentration (FIG. 4). The time-resolved fluorescence signals of the E166Cf enzyme at 515 nm were also measured with various concentrations of penicillin G (FIG. 5). At low antibiotic concentration (1.0×10^−7 and 1.0×10^−6 M), the fluorescence intensity of the E166Cf enzyme increases gradually and then declines. At high antibiotic concentration (1.0×10^−5 and 1.0×10^−4 M), the fluorescence signal increases instantaneously and levels off to a plateau. The fluorescence signal stays at the plateau for a certain length of time and then declines afterwards. Similar results were obtained with penicillin V and ampicillin (FIGS. 6 and 7).\nWith cefuroxime, cefoxitin and moxalactam as substrates, the fluorescence intensities of the E166Cf enzyme (1.2×10^−7 M) at 515 nm in 50 mM phosphate buffer (pH 7.0) also increase as a function of antibiotic concentration (FIGS. 8 to 10).\nAt high substrate concentration (1.0×10^−5 and 1.0×10^−4 M), the penicillin substrates rapidly occupy the active sites to form the ES complexes, thus switching on the fluorescence of the fluorescein labels instantaneously. […] This can be verified by the fact that the ‘plateau time’ (8 and 22 min for 1.0×10^−5 and 1.0×10^−4 M penicillin G respectively) is consistent with the ‘substrate hydrolysis time’ determined by spectrophotometric assays (7 and 20 min for 1.0×10^−5 and 1.0×10^−4 M penicillin G respectively). When most of the penicillin substrates have been hydrolyzed to carboxylic acids, the fluorescence signal of the labeled enzyme will decline subsequently.",
  "data": [
    {"smiles": "CC1(C)S[C@@H]2[C@H](NC(=O)Cc3ccccc3)C(=O)N2[C@H]1C(=O)O", "note": "[Penicillin G, penicillin G]", "values": [
      {"measurement": "plateau time of fluorescence signal", "setting": "1.0×10^−4 M antibiotic", "result": 22, "unit": "min"},
      {"measurement": "plateau time of fluorescence signal", "setting": "1.0×10^−5 M antibiotic", "result": 8, "unit": "min"}
    ]}
  ]
}
